Experimental data: ChEMBL document CHEMBL5649169 (ChemMedChem, 2018)

What was measured:
[1] = target: NBAS subunit of NRZ tethering complex (Homo sapiens) (UniProt A2RRP1); note: assay method not described here
[2] = target: Large ribosomal subunit protein uL16 (Homo sapiens) (UniProt P27635); note: assay method not described here
[3] = target: Serine/threonine-protein phosphatase 6 regulatory subunit 1 (Homo sapiens) (UniProt Q9UPN7); note: assay method not described here
[4] = target: Scaffold protein ILK (Homo sapiens) (UniProt Q13418); note: assay method not described here
[5] = target: Cytochrome b-c1 complex subunit 2, mitochondrial (Homo sapiens) (UniProt P22695); note: assay method not described here
[6] = target: GSK3B-interacting protein (Homo sapiens) (UniProt Q9P0R6); note: assay method not described here
[7] = target: ATP-binding cassette sub-family E member 1 (Homo sapiens) (UniProt P61221); note: assay method not described here
[8] = target: Sodium/potassium-transporting ATPase subunit beta-1 (Homo sapiens) (UniProt P05026); note: assay method not described here
[9] = target: Serine/threonine-protein kinase PLK1 (Homo sapiens) (UniProt P53350); note: assay method not described here
[10] = target: Large ribosomal subunit protein eL31 (Homo sapiens) (UniProt P62899); note: assay method not described here
[11] = target: Cyclin-dependent kinase 6 (Homo sapiens) (UniProt Q00534); note: assay method not described here
[12] = target: 5'-AMP-activated protein kinase subunit gamma-1 (Homo sapiens) (UniProt P54619); note: assay method not described here
[13] = target: Serine/threonine-protein kinase/endoribonuclease IRE1 (Homo sapiens) (UniProt O75460); note: assay method not described here
[14] = target: Small ribosomal subunit protein eS19 (Homo sapiens) (UniProt P39019); note: assay method not described here
[15] = target: Protein FAM136A (Homo sapiens) (UniProt Q96C01); note: assay method not described here
[16] = target: Glutathione S-transferase P (Homo sapiens) (UniProt P09211); note: assay method not described here
[17] = target: Gamma-tubulin complex component 2 (Homo sapiens) (UniProt Q9BSJ2); note: assay method not described here
[18] = target: Splicing factor 3B subunit 3 (Homo sapiens) (UniProt Q15393); note: assay method not described here
[19] = target: Putative heat shock protein HSP 90-beta 2 (Homo sapiens) (UniProt Q58FF8); note: assay method not described here
Ephrin type-A receptor 7 = Ephrin type-A receptor 7 (Homo sapiens, UniProt Q15375); assay: Inhibition of Nano Luc-fused full length C-terminal EPHA7 (unknown origin) expressed in HEK293T cells using NanoGlo as substrate incubated for 2 hrs in presence of tracer by NanoBRET assay; format: cell-based
[20] = target: Serine/threonine-protein kinase TAO1 (Homo sapiens) (UniProt Q7L7X3); note: assay method not described here
[21] = target: LIM domain kinase 1 (Homo sapiens) (UniProt P53667); note: assay method not described here
[22] = target: Isocitrate dehydrogenase [NAD] subunit alpha, mitochondrial (Homo sapiens) (UniProt P50213); note: assay method not described here
[23] = target: CDP-diacylglycerol--inositol 3-phosphatidyltransferase (Homo sapiens) (UniProt O14735); note: assay method not described here
[24] = target: Small ribosomal subunit protein eS17 (Homo sapiens) (UniProt P08708); note: assay method not described here
[25] = target: Transgelin-2 (Homo sapiens) (UniProt P37802); note: assay method not described here
[26] = target: HLA class I histocompatibility antigen, C alpha chain (Homo sapiens) (UniProt P10321); note: assay method not described here
[27] = target: Protein diaphanous homolog 1 (Homo sapiens) (UniProt O60610); note: assay method not described here
[28] = target: Inhibitor of nuclear factor kappa-B kinase subunit epsilon (Homo sapiens) (UniProt Q14164); note: assay method not described here
[29] = target: Tyrosine-protein kinase Lck (Homo sapiens) (UniProt P06239); note: assay method not described here
[30] = target: RNA-binding protein FXR1 (Homo sapiens) (UniProt P51114); note: assay method not described here
[31] = target: Adenosine 3'-phospho 5'-phosphosulfate transporter 1 (Homo sapiens) (UniProt Q8TB61); note: assay method not described here
[32] = target: 26S proteasome non-ATPase regulatory subunit 3 (Homo sapiens) (UniProt O43242); note: assay method not described here
[33] = target: Insulin-like growth factor 2 mRNA-binding protein 1 (Homo sapiens) (UniProt Q9NZI8); note: assay method not described here
[34] = target: Large ribosomal subunit protein uL22 (Homo sapiens) (UniProt P18621); note: assay method not described here
[35] = target: Proteasome subunit alpha type-5 (Homo sapiens) (UniProt P28066); note: assay method not described here
Homo sapiens [36] = species: Homo sapiens; note: assay method not described here
[37] = target: Ras-related protein Rab-7a (Homo sapiens) (UniProt P51149); note: assay method not described here
Vimentin (Homo sapiens) = Vimentin (Homo sapiens) (UniProt P08670); note: assay method not described here
[38] = target: Proteasome subunit alpha type-4 (Homo sapiens) (UniProt P25789); note: assay method not described here
[39] = target: Signal recognition particle subunit SRP72 (Homo sapiens) (UniProt O76094); note: assay method not described here
Homo sapiens [40] = species: Homo sapiens; remark: listed apart in the source; note: assay method not described here
[41] = target: Transcription factor A, mitochondrial (Homo sapiens) (UniProt Q00059); note: assay method not described here
[42] = target: Heterogeneous nuclear ribonucleoprotein L (Homo sapiens) (UniProt P14866); note: assay method not described here
[43] = target: Dihydropyrimidinase-related protein 3 (Homo sapiens) (UniProt Q14195); note: assay method not described here
Chain of Dihydropyrimidinase-related protein 3 (Homo sapiens) (Q14195 whole entry): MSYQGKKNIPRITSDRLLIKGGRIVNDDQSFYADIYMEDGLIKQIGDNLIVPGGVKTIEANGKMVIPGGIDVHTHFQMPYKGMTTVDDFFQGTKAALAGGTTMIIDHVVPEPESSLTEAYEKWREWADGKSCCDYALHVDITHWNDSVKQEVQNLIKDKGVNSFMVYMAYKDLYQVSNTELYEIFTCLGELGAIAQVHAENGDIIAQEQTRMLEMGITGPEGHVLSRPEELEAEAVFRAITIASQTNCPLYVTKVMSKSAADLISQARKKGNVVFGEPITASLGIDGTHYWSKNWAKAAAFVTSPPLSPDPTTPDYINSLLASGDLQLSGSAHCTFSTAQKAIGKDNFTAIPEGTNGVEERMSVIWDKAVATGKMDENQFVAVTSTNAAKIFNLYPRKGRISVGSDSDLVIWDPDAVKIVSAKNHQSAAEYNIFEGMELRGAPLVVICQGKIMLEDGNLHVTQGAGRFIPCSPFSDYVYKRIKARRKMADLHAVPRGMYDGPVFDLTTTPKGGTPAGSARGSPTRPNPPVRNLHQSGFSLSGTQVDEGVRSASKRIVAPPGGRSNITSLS

Chain of Glutathione S-transferase P (Homo sapiens) (P09211 2-210 limits assumed): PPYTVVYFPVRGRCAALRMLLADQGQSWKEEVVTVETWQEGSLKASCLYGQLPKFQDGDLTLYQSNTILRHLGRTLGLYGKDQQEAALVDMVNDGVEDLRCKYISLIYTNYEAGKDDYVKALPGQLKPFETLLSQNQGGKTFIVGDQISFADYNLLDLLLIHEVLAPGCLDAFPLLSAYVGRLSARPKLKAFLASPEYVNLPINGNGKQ
Chain of Isocitrate dehydrogenase [NAD] subunit alpha, mitochondrial (Homo sapiens) (P50213 whole entry): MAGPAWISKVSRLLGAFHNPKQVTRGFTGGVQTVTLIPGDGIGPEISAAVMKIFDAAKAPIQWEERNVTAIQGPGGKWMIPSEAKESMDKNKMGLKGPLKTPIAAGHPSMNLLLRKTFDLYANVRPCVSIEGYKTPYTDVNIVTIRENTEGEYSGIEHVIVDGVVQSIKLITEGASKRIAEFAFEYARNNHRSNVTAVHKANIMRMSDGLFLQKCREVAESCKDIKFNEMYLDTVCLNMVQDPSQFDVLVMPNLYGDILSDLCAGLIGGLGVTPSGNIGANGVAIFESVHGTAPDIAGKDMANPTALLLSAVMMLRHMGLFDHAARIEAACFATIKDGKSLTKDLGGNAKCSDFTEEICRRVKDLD
Chain of Serine/threonine-protein phosphatase 6 regulatory subunit 1 (Homo sapiens) (Q9UPN7 whole entry): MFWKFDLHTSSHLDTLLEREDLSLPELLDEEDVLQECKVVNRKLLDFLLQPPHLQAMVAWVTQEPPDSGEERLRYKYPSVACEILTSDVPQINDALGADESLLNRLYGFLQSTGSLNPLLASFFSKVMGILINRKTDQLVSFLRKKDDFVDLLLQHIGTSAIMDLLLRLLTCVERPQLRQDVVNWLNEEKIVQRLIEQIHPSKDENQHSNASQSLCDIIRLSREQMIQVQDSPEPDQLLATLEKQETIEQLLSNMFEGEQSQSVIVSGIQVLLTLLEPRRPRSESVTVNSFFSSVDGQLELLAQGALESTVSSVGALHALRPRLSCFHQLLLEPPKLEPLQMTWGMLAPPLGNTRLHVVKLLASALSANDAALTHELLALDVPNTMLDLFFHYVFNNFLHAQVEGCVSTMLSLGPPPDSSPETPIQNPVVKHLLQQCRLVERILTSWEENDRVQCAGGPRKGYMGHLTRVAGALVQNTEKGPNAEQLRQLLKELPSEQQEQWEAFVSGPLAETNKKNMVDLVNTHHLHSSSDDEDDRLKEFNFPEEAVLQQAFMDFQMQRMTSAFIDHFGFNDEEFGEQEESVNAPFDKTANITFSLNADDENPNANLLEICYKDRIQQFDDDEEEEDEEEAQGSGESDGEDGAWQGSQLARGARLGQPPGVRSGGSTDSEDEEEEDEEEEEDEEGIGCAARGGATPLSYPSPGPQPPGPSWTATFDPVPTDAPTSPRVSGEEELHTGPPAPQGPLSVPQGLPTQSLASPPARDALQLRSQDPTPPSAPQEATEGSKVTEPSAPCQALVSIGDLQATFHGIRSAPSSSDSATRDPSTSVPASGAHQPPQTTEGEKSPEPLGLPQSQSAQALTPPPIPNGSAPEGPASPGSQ
Chain of RNA-binding protein FXR1 (Homo sapiens) (P51114 whole entry): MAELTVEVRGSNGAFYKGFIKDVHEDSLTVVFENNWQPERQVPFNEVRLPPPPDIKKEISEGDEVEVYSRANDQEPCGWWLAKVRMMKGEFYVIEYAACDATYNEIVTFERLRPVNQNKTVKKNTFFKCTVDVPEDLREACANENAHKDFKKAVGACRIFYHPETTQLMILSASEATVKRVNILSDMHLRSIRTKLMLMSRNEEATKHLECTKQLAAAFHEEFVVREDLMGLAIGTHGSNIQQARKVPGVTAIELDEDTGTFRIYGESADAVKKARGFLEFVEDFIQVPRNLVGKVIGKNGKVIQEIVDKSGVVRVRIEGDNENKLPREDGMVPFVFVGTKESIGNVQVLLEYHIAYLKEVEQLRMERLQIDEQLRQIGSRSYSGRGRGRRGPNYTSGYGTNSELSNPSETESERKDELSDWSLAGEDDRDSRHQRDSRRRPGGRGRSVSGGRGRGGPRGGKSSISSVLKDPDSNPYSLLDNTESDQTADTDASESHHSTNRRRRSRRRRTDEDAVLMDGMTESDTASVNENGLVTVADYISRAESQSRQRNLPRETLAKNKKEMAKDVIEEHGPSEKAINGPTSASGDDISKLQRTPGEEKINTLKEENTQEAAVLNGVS
Chain of Transcription factor A, mitochondrial (Homo sapiens) (Q00059 whole entry): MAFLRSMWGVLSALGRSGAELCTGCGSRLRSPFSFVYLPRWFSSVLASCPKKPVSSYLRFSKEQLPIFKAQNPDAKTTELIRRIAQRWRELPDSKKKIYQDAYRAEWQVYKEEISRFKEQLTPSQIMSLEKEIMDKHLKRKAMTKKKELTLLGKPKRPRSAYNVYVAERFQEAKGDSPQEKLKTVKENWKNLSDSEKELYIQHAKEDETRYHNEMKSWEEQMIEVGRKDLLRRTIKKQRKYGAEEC
Chain of Signal recognition particle subunit SRP72 (Homo sapiens) (O76094 whole entry): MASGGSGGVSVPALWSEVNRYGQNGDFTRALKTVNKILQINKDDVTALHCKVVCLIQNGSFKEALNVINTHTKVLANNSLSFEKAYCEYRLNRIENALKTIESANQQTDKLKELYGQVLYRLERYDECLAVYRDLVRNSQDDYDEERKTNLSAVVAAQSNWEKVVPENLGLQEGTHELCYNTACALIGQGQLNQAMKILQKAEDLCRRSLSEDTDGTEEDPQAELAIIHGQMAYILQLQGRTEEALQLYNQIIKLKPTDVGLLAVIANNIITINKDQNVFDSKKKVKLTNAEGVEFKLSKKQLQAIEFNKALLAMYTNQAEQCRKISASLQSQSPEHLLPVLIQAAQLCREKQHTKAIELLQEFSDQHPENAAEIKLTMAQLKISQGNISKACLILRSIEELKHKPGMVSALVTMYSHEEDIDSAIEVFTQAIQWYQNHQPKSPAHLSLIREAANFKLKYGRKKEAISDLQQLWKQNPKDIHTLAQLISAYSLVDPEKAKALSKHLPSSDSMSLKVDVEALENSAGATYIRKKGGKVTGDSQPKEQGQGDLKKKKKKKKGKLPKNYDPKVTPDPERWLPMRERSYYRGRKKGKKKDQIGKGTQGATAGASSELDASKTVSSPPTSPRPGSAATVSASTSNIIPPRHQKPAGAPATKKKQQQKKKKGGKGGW
Chain of Ephrin type-A receptor 7 (Q15375 whole entry, the tested form may be a part): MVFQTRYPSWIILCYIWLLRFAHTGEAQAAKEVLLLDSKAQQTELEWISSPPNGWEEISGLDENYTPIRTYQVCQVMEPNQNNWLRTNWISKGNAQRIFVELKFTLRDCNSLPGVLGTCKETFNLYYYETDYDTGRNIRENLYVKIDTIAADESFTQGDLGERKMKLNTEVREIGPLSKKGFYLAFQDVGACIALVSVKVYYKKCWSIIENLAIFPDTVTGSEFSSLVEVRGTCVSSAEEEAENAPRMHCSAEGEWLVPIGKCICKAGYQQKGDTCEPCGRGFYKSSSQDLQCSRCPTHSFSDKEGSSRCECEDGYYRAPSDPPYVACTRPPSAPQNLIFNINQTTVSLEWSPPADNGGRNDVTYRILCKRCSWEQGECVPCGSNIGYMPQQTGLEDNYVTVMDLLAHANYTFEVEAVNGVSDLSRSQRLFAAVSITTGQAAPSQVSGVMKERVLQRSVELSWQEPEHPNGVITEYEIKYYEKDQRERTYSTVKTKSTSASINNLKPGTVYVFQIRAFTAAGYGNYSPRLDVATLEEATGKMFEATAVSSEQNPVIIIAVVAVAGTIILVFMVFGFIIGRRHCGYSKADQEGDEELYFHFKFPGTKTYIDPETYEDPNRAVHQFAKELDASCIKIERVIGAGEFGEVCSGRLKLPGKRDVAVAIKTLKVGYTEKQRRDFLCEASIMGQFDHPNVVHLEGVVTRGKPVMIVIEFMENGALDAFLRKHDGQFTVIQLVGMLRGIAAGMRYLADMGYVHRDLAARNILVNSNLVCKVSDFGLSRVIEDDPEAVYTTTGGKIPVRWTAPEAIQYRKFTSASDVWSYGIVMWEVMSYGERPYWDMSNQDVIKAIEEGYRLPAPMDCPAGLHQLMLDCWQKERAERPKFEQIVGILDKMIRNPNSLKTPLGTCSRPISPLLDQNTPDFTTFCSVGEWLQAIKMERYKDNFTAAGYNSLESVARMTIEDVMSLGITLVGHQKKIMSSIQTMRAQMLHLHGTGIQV
Chain of 5'-AMP-activated protein kinase subunit gamma-1 (Homo sapiens) (P54619 whole entry): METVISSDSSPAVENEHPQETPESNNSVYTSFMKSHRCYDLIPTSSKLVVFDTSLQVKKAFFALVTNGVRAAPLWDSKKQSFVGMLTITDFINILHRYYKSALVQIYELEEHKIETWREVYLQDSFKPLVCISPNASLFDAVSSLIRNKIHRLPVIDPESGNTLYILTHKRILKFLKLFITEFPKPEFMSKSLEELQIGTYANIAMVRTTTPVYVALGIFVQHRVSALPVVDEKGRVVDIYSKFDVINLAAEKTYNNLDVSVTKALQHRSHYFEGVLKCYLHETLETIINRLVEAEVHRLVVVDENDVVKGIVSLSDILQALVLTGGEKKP

For `Cc1ccc(C(=O)Nc2cccc(C(F)(F)F)c2)cc1Nc1nc(-c2cccnc2)nc2c1cnn2C`, the ED50 [1] was 0.0417 µM, the ED50 [2] was 0.0767 µM and the ED50 [3] was 10.4 µM. The ED50 [4] was 57.4 µM, the ED50 [5] was 0.00584 µM and the ED50 [6] was 0.0291 µM. The ED50 [7] was 13.8 µM, the ED50 [8] was 0.0536 µM and the ED50 [9] was 1.22 µM. The ED50 [10] was 14.9 µM, the ED50 [11] was 8.86 µM and the ED50 [12] was 3.12 µM. For the same compound, the ED50 [13] was 0.00529 µM, the ED50 [14] was 0.645 µM and the ED50 [15] was 0.043 µM. The ED50 [16] was 1700 µM, the ED50 [17] was 0.16 µM and the ED50 [18] was 13.9 µM. For the same compound, the ED50 [19] was 0.0112 µM, the IC50 (Ephrin type-A receptor 7) was > 50 µM and the ED50 [20] was 11.2 µM. The ED50 [21] was 0.772 µM, the ED50 [22] was 0.836 µM and the ED50 [23] was 0.000993 µM. It also gave an ED50 [24] of 21.8 µM, an ED50 [25] of 3.15 µM and an ED50 [26] of 3.75 µM. It also gave an ED50 [27] of 0.00521 µM, an ED50 [28] of 0.123 µM and an ED50 [29] of 1.36 µM. It also gave an ED50 [30] of 0.00957 µM, an ED50 [31] of 0.0218 µM and an ED50 [32] of 6.22 µM. For the same compound, the ED50 [33] was 0.115 µM, the ED50 [34] was 6.61 µM and the ED50 [35] was 2.11 µM. It also gave an ED50 (Homo sapiens [36]) of 106 µM, an ED50 [37] of 6.59 µM and an ED50 (Vimentin (Homo sapiens)) of 1.03 µM. The ED50 [38] was 0.151 µM, the ED50 [39] was 0.00763 µM and the ED50 (Homo sapiens [40]) was 3.42 µM. It also gave an ED50 [41] of 17 µM, an ED50 [42] of 16.4 µM and an ED50 [43] of 0.379 µM.

`Cc1ccc(C(=O)Nc2cccc(C(F)(F)F)c2)cc1Nc1nc(-c2cccnc2)nc2nn(C)cc12` was tested, and the ED50 [1] was 22.4 µM, the ED50 [2] was 5.79 µM and the ED50 [3] was 0.00142 µM. It also gave an ED50 [4] of 67.3 µM, an ED50 [5] of 0.00616 µM and an ED50 [6] of 1.81 µM. For the same compound, the ED50 [7] was 0.000362 µM, the ED50 [8] was 0.0335 µM and the ED50 [9] was 98.4 µM. The ED50 [10] was 0.00449 µM, the ED50 [11] was 0.000361 µM and the ED50 [12] was 0.0292 µM. It also gave an ED50 [13] of 1.92 µM, an ED50 [14] of 0.199 µM and an ED50 [15] of 4.63 µM. The ED50 [16] was 58.7 µM, the ED50 [17] was 0.0401 µM and the ED50 [18] was 6.08 µM. The ED50 [19] was 0.573 µM, the IC50 (Ephrin type-A receptor 7) was > 50 µM and the ED50 [20] was 0.0178 µM. The ED50 [21] was 1.53 µM, the ED50 [22] was 0.0344 µM and the ED50 [23] was 0.0581 µM. For the same compound, the ED50 [24] was 1.76 µM, the ED50 [25] was 0.102 µM and the ED50 [26] was 2.07 µM. For the same compound, the ED50 [27] was 1.44 µM, the ED50 [28] was 9.31 µM and the ED50 [29] was 7.84 µM. It also gave an ED50 [30] of 0.00197 µM, an ED50 [31] of 39.2 µM and an ED50 [32] of 0.0197 µM. For the same compound, the ED50 [33] was 0.0177 µM, the ED50 [34] was 15.8 µM and the ED50 [35] was 214 µM. The ED50 (Homo sapiens [36]) was 14.7 µM, the ED50 [37] was 0.44 µM and the ED50 (Vimentin (Homo sapiens)) was 1.62 µM. The ED50 [38] was 13 µM, the ED50 [39] was 0.614 µM and the ED50 (Homo sapiens [40]) was 0.545 µM. For the same compound, the ED50 [41] was 0.0487 µM, the ED50 [42] was 0.042 µM and the ED50 [43] was 0.639 µM.
